The IC50 is the concentration at which inhibition is half-maximal. The EC50 is the concentration that produces a half-maximal response. Broadly, the AC50 is the concentration at which the activity in the assay is half-maximal.

The values below come from ChEMBL document CHEMBL1201862, “PubChem BioAssay data set” (2004).

Assay [1] can be described thus: A Cell Based Secondary Assay To Explore Cytotoxicity of Compounds that Sensitize Mycobacterium Tuberculosis to Beta-Lactam Antibiotics. It counts as functional.
Assay [2] has as its system H9c2. The experiment in a line: cells. It counts as functional, cell-based. As to conditions: Rattus norvegicus, H9c2, Myocardium.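 Also: confirmatory concentration-response retest of ultra-high-throughput screening hits for modulation of myocardial damage; cell death induced by hydrogen peroxide oxidative stress; compound pretreatment for 60 min then peroxide exposure for 2 h; potency is for protecting the cells against peroxide damage rather than for killing them.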
Assay [3] in a line: HEp-2 cell cytotoxicity, dose response, cytotoxicity control for RSV inhibitor project, HTS (AID 2410). It counts as functional. Conditions: human respiratory syncytial virus.
Assay [4] deals with Voltage-dependent T-type calcium channel subunit alpha-1H (Homo sapiens, UniProt O95180). It counts as functional.
Sequence of Voltage-dependent T-type calcium channel subunit alpha-1H (O95180 whole entry): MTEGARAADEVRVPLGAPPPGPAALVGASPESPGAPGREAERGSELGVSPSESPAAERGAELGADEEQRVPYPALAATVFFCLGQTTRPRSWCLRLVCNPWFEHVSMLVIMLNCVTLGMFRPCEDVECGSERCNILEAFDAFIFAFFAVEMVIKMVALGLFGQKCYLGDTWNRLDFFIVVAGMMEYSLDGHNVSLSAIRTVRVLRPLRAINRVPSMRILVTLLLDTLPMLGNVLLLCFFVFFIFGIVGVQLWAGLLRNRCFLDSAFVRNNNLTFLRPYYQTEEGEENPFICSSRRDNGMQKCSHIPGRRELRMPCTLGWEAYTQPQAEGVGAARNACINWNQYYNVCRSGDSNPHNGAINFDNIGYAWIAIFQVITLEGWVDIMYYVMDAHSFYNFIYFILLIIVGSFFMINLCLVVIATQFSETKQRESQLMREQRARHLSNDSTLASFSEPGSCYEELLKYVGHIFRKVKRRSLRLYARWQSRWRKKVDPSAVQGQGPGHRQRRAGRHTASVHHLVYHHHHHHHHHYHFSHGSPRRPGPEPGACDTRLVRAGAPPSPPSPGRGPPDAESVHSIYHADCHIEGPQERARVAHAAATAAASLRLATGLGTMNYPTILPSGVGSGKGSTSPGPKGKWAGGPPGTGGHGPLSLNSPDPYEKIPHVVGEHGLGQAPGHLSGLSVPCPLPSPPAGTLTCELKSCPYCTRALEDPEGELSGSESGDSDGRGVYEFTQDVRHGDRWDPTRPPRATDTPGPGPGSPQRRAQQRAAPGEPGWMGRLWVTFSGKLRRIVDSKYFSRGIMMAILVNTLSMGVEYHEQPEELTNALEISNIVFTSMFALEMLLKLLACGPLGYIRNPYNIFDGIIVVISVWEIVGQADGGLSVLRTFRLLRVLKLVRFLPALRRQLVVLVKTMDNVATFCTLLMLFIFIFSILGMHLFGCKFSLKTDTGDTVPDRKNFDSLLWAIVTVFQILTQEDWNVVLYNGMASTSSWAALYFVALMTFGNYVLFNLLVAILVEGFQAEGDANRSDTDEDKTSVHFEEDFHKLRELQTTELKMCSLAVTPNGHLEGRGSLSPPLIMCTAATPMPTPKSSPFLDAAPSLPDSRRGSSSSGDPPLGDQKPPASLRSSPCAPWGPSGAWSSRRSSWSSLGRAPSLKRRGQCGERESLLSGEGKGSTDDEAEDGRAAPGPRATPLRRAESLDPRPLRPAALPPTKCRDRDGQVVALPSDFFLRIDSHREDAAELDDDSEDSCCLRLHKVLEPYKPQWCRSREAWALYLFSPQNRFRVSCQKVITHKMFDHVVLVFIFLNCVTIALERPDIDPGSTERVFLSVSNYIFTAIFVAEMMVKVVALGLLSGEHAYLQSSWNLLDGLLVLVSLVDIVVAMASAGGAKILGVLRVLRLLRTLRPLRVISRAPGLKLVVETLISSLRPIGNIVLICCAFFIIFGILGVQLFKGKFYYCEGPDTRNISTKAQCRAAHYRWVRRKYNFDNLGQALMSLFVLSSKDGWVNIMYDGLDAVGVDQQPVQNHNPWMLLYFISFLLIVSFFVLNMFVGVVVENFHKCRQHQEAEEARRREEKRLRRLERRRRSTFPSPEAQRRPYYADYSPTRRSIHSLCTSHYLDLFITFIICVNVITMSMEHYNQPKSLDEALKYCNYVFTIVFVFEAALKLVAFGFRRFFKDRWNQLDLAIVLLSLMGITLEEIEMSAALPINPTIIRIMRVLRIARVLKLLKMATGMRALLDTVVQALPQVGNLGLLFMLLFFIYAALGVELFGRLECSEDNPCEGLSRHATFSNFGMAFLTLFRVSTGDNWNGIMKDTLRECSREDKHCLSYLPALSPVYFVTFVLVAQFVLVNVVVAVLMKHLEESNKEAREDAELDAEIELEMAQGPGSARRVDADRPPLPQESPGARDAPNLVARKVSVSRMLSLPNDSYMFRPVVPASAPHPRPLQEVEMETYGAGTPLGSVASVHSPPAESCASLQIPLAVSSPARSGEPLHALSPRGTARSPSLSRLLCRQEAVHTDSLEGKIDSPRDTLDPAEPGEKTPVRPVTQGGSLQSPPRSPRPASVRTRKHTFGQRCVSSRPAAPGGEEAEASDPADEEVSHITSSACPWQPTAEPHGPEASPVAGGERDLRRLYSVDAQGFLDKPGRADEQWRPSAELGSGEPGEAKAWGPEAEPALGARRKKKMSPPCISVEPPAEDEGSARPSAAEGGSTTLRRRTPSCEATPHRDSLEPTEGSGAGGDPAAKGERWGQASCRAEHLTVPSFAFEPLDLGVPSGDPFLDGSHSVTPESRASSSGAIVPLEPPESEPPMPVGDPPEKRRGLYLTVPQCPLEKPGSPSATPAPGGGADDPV
In assay [5] the test system is INS1. The experiment in a line: beta cell apoptosis inhibitors, cytokine rescue, dose response, luminescence, retest (AID 449756).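 Also: cell death triggered by IL-1 beta plus TNF-alpha plus IFN-gamma mixture; protective hits raise ATP signal compared with cytokine alone wells.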 It counts as functional, cell-based. Conditions: Rattus norvegicus.
Assay [6] has as its target T1, Protein skinhead-1 (Caenorhabditis elegans, UniProt P34707).
T1 sequence (P34707 whole entry): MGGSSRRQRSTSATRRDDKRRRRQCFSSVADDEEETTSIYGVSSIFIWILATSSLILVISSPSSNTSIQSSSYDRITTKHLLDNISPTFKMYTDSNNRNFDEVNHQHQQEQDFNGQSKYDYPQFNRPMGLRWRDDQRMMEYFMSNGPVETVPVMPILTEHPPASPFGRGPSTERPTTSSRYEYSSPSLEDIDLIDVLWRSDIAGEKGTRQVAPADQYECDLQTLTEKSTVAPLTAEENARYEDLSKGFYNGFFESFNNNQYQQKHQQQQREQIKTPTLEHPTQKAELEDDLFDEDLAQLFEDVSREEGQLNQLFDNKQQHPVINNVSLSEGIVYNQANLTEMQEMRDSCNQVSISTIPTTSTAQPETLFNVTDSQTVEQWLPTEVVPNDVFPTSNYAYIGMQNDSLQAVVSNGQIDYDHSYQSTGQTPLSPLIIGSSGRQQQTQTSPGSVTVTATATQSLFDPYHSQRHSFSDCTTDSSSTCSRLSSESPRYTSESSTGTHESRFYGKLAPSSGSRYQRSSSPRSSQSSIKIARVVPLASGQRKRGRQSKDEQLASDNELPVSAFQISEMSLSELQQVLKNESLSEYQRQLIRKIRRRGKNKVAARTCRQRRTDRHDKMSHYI
It counts as functional.

The target in assay [7] is Cytochrome P450 2C19 (Homo sapiens, UniProt P33261). The experiment in a line: Cytochrome panel assay with activity outcomes. Panel member name: p450-cyp2c19 Compounds with AC50 equal or less than 10 uM are considered active. It counts as functional. Conditions: read-out: AC50.
Sequence of Cytochrome P450 2C19 (P33261 whole entry): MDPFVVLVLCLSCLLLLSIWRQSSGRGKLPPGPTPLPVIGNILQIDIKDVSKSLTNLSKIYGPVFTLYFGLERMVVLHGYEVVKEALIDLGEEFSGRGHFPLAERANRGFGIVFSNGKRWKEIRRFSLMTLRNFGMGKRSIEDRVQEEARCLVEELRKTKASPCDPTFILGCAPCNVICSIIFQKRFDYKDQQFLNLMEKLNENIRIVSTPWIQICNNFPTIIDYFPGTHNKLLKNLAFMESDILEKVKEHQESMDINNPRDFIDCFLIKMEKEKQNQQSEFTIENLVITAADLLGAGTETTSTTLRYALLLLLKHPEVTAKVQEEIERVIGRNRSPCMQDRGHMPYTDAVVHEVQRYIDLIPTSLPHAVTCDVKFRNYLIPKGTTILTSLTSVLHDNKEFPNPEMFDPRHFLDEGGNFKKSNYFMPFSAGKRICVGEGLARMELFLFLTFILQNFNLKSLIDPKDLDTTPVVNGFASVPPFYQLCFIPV
Assay [8] has as its target Cytochrome P450 2D6 (Homo sapiens, UniProt P10635).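 Also: CYP2D6 member of a cytochrome P450 panel assay.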
Assay [9] has as its target T2, Cytochrome P450 1A2 (Homo sapiens, UniProt P05177).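 Also: PubChem cytochrome P450 panel assay, CYP1A2 panel member.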
T2 sequence (P05177 whole entry): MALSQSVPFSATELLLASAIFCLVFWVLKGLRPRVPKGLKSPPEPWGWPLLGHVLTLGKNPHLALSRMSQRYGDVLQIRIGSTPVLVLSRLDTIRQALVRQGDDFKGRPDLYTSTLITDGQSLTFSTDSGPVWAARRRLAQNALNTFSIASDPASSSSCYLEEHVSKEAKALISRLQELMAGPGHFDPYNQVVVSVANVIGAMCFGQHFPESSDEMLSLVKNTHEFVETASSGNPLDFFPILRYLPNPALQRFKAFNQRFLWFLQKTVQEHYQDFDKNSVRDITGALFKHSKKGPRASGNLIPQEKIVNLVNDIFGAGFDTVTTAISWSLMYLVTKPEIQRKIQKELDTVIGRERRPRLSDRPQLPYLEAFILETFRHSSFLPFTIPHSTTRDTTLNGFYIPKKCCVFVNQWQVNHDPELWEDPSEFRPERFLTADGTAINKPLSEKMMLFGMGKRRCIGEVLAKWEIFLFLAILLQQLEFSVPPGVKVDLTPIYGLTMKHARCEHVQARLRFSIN

Assay [10] in a line: P. falciparum 3D7-ScDHODH growth inhibitors, dose response, SYBR Green, dry powder samples (AID 1159570).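 Also: parasite growth measured after 72 hours of compound exposure.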 It counts as functional, cell-based.
A short description of assay [11]: P. falciparum Dd2 growth inhibitors, dose response, SYBR Green, cherry-picked samples (AID 1159567). It counts as functional, cell-based.
A short description of assay [12]: P. falciparum Dd2 growth inhibitors, dose response, SYBR Green, dry powder samples (AID 1159566).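 Also: potency for growth inhibition with lower SYBR green DNA signal.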 It counts as functional, cell-based.
Assay [13] is described as follows: P. falciparum ATP4 D1247Y mutant growth inhibitors, dose response, NITD609-resistant line, SYBR Green, dry powder (AID 1159571).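 Also: parasites synchronized at ring stage by sorbitol before testing.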 It counts as functional, cell-based.
The nature of assay [14]: inhibitors of intracellular T. cruzi replication, confirmation, NIH3T3 host cells, beta-gal luminescence (AID 2044).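 Also: intracellular parasites grown in NIH/3T3 mouse fibroblasts as host cells; luminescent beta-galactosidase reporter signal from transgenic T. cruzi replicating inside host cells; inhibitors lower the luminescence signal.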 It counts as functional, cell-based.
A short description of assay [15]: microbe, parasite or virus in culture. It counts as functional. As to conditions: Mycobacterium tuberculosis.
A short description of assay [16]: cytotoxicity toward NIH3T3 fibroblasts, dose response, counter-screen, cell-based, ATP luminescence, mouse fibroblasts (AID 2010).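 Also: cells exposed to compound for about 90 hours before reading.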 It counts as functional.
A short description of assay [17]: Luminescence Cell-Based Dose Retest to Confirm Inhibitors of Cancer Stem Cells. [Related pubchem assays (depositor defined):AID2717, AID2721]. It counts as functional. Conditions: Homo sapiens.
Assay [18] has as its target T3, Histone-lysine N-methyltransferase NSD2 (Homo sapiens, UniProt O96028).
T3 sequence (O96028 whole entry): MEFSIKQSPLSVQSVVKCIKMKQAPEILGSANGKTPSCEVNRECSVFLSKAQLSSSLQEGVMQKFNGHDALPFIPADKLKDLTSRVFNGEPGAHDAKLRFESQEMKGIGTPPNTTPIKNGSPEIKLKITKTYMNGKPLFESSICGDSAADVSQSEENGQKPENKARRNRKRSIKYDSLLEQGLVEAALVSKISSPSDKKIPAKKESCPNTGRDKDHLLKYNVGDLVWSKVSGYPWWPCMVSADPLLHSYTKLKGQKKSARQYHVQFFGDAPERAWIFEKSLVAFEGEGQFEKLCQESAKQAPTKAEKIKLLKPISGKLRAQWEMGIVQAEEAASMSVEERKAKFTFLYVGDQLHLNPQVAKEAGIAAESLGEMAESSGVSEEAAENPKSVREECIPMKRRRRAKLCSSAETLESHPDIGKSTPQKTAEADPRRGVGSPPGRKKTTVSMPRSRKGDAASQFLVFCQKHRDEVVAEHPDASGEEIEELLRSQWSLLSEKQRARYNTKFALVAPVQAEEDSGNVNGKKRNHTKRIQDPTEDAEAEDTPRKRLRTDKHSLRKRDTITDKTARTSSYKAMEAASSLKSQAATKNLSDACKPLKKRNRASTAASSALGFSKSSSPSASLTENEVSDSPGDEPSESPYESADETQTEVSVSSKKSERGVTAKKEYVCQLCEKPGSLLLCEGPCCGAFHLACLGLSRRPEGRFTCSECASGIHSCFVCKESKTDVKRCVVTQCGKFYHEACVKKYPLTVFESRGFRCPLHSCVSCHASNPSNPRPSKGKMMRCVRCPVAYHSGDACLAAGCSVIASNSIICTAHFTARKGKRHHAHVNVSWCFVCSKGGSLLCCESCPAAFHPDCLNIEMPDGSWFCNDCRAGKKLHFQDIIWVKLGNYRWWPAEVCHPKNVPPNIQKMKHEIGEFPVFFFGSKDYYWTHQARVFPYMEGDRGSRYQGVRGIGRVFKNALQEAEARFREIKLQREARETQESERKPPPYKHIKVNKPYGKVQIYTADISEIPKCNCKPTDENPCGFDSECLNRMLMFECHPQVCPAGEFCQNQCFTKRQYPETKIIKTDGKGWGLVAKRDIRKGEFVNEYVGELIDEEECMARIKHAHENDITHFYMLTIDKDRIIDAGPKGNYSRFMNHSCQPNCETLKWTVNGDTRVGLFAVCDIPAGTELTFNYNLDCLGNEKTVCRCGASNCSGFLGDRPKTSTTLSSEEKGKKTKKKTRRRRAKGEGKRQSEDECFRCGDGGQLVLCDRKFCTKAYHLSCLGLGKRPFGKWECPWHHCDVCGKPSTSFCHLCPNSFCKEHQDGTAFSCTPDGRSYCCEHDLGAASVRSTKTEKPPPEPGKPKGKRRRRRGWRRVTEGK
It counts as biochemical.

Assay [19] in a line: cells. It counts as functional, cell-based.
The nature of assay [20]: cells. It counts as functional, cell-based. The source holds these as a separate data set.
In assay [21] the target is Nonstructural protein 1 (Influenza A virus, UniProt Q194T2). It counts as functional, Influenza A virus (A/California/07/2009(H1N1)).
Sequence of Nonstructural protein 1 (Q194T2 whole entry): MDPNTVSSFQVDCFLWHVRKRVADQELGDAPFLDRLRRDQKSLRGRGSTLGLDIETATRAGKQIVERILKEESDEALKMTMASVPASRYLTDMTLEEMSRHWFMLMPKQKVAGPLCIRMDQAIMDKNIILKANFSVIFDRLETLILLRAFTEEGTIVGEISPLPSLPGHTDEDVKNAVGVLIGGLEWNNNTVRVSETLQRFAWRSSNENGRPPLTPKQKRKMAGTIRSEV
The target of assay [22] is T4, Streptokinase A (Streptococcus pyogenes serotype M1, UniProt P10520).
T4 sequence (P10520 whole entry): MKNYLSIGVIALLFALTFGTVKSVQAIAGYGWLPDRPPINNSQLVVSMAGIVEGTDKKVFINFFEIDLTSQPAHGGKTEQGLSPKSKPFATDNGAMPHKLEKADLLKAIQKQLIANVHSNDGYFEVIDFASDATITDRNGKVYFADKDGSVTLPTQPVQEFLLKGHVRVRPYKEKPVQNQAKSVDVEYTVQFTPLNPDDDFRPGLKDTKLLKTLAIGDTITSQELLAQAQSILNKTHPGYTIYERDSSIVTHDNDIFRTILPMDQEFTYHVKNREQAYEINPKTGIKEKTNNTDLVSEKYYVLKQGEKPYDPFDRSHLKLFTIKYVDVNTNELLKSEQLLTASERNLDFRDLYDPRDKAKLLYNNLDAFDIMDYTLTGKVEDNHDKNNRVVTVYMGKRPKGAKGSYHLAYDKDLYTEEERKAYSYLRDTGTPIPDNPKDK
The experiment in a line: S. pyogenes streptokinase expression inhibitors, potency, dose response, plasminogen activation absorbance, OD405 (AID 1914).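 Also: secreted streptokinase activity via plasminogen activation per viability signal from cell pellet.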 It counts as functional, Streptococcus pyogenes M1 GAS.

The subject of assay [23] is Streptococcus. The experiment in a line: Group A Streptococcus viability loss, dose response, counter-screen for streptokinase expression inhibitor project, luminescence, BacTiterGlo (AID 1915).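 Also: potency for reduction of bacterial viability or growth.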 It counts as functional, organism-based. For orientation: The purpose of a counterscreen is to sort out artefacts and off-target activity.
Assay [24] in a line: A549 cell cytotoxicity, dose response, cytotoxicity control, plate reader, cherry-pick, antagonist series (AID 743412). It counts as functional, cell-based.

Active and inactive are the calls of the source. Bounds are passed on as bounds.

Sequence of Cytochrome P450 2D6 (P10635 whole entry): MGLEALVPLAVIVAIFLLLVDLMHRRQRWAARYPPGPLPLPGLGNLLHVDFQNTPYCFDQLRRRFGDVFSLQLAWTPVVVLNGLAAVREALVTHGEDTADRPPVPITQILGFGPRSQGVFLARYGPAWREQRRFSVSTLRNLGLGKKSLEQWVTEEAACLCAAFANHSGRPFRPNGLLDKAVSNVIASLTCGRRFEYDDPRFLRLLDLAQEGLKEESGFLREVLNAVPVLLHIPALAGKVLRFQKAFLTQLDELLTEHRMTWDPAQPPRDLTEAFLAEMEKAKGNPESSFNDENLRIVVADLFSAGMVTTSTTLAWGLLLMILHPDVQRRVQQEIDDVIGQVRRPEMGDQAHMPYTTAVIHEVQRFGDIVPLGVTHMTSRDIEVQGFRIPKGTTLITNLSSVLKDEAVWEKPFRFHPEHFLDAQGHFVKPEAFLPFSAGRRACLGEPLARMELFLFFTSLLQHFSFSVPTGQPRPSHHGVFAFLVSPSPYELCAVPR

On to `c1ccc(-c2oc3ncnc(NCCN4CCOCC4)c3c2-c2ccccc2)cc1`, for which, in [1], the CC50 is > 40 µM (active). For the same compound, the IC50 in assay [2] was > 79 µM (inactive).
In the case of `CC1Cc2ccccc2N1C(=O)CSc1nc2ccccc2o1` (centres undefined), in assay [3], the CC50 was 26.9 µM (active). Besides, the EC50 in assay [4] was 9.56 µM (active). The AC50 in assay [5] is > 260 µM (inactive). Further, the IC50 in [6] was > 100 µM (inactive).
Consider `COC(=O)[C@@]1(Cc2ccc(F)cc2)[C@H]2c3cc(C(=O)N(C)C)n(Cc4ccc(OC)c(OC)c4)c3C[C@H]2CN1C(=O)c1ccccc1`, for which, in [1], the CC50 was > 40 µM (active). Besides, the figures for the AC50 in assay [7], in [8] and in assay [9] were 39.8 µM (inconclusive), 39.8 µM (inconclusive) and 31.6 µM (inconclusive), respectively.
Regarding `Cc1ccc(S(=O)(=O)N(C)C[C@H]2OCc3ccccc3-c3c(n(C)c4ccccc34)C(=O)N([C@H](C)CO)C[C@@H]2C)cc1`, the AC50 is 1.27 µM (active) in [10], 2.36 µM (active) in assay [11], 1.47 µM (active) in [12] and 1.08 µM (active) in assay [13].
As for `Cc1ccccc1N1CCN(C(=O)c2ccc(Oc3ccc(C(F)(F)F)cn3)cc2)CC1`, the EC50 is 2.32 µM (active) in assay [14], > 60 µM (not active) in assay [16] and 5.89 µM (active) in [4]. Moreover, the CC50 in assay [15] is > 40 µM (active). Further, the AC50 in assay [17] was 3.43 µM (active).
For the compound `O=S(=O)(c1cccc(S(=O)(=O)N2CCC(Cc3ccccc3)CC2)c1)N1CCOCC1`, the EC50 in assay [4] was 8.09 µM (active).
On to `Nc1c(C(=O)OCC2CCCO2)c2nc3ccccc3nc2n1C1CCCCC1` (centres undefined), for which the AC50 in [18] was 10 µM (active).
Regarding `Nc1nc(SCC(=O)N2CCCC2)nc(O)c1-c1ccccc1`, the EC50 in [19] and in [20] was > 350 µM (not active) throughout.
As for `COc1cc(C(=O)Nc2sc(C)c(C)c2C(=O)O)cc(OC)c1OC`, the EC50 in assay [19] and in assay [20] was > 350 µM (not active) in each case.
`Cc1ccc(S(=O)(=O)NC(=O)c2ccc(-c3ccc(-c4ccccc4)cc3)o2)c(C)c1`: the EC50 in [4] was 3.33 µM (active).
On to `CO[C@@H]1CN(C)C(=O)c2ccc(NC(=O)c3nc4ccccc4s3)cc2OC[C@H](C)N(Cc2ccncc2)C[C@@H]1C`, for which the concentration at half-maximal activity (AC50) in assay [10] is 1.86 µM (active); in assay [11], 0.985 µM (active); in assay [12] it was 0.792 µM (active); in assay [13], 0.725 µM (active).
As for `Cc1cccc(N2CCN(CC(=O)Nc3nccs3)CC2)c1C`, in [4], the EC50 was 6.29 µM (active).
As for `COc1ccc2c3c(n(C)c2c1)[C@@H](CO)N(C(=O)C1CC1)CC31CCN(C(=O)Nc2cccc(F)c2)CC1`, the AC50 is 0.171 µM (active) in [10], 0.506 µM (active) in [11], 0.343 µM (active) in [12] and 0.441 µM (active) in assay [13].
As to `CC1(C)CN(c2cccc(C#N)c2)C1=O`, in [18], the AC50 was 10.7 µM (active).
Turning to `O=C(CN1CCCC1)N/N=C/c1c(O)ccc2ccccc12`, the EC50 in [19] was 8.38 µM (active); in [20] it was > 350 µM (not active). The IC50 in [21] was 9.17 µM (active).
On to `CCOC(=O)c1c(C)nc2sc(C(=O)Nc3ccccc3)c(N)c2c1-c1ccc(OC)cc1`, for which, in [1], the CC50 was 3.99 µM (active).
Consider `FC(F)Oc1ccccc1C1CC(c2ccc(Br)s2)Nc2ncnn21` (centres undefined), for which the CC50 in assay [1] is > 40 µM (active). The EC50 in [22] and in [23] was > 150 µM (not active) throughout.
Turning to `O=C(Nc1ccc(N2CCOCC2)c(S(=O)(=O)Nc2ccccc2Cl)c1)c1ccc(F)cc1`, the AC50 in [24] is > 52 µM (inactive).
